From patent US20160287589A1, “SUBSTITUTED-IMIDAZOPYRIDAZINES” (BAYER PHARMA AKTIENGESELLSCHAFT, priority 2013, published 2016)

Assays:
MKNK1 [1] = target: T1, MKNK1 (Homo sapiens, UniProt Q9BUB5, T385D); assay: MKNK1 kinase high ATP assay (TR-FRET-based); format: biochemical; settings: Table 2c; 2 mM ATP, 15 min preincubation
T1 construct: GST (N); purchased Carna Biosciences 02-145; host or cells: insect cells (baculovirus expression system)
Outline: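 GST-tagged full-length human MKNK1 (aa 1-424, T344D) from insect cells, preincubated with compound 15 min at 22 °C. Reaction 30 min at 22 °C with 2 mM ATP and 0.06 μM biotinylated peptide in HEPES pH 7.5, Mg2+, DTT. Phosphopeptide detected by TR-FRET (665/622 ratio) with anti-pS6 (pSer236) antibody; normalised to no-inhibitor and no-enzyme controls.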

MKNK1 [2] = target: T1, MKNK1; assay: MKNK1 kinase assay (MKNK1 TR-FRET assay); format: biochemical; settings: Table 1c; 10 μM ATP, 15 min preincubation

T1 sequence (Q9BUB5 1-424 isoform Q9BUB5-2 T344D): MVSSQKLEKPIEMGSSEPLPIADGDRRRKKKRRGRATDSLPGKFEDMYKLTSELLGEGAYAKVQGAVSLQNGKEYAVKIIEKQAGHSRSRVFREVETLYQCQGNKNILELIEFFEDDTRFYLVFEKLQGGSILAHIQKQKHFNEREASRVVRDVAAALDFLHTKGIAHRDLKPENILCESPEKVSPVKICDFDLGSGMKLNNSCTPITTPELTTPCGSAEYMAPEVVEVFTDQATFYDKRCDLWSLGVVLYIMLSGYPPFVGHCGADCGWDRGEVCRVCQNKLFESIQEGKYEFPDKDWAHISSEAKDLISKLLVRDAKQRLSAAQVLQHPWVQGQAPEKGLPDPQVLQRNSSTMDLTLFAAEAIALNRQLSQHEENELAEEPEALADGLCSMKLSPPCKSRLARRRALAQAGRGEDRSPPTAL

SMILES	IC50 (MKNK1 [1]) [nM]	IC50 (MKNK1 [2]) [nM]
O=C1CNC[C@H](COc2ccc3ncc(-c4cc5c(N6CCOCC6)nccc5o4)n3n2)N1 [III-89, (6R)-6-[({3-[4-(Morpholin-4-yl)furo[3,2-c]pyridin-2-yl]imidazo[1,2-b]pyridazin-6-yl}oxy)methyl]piperazin-2-one]	8	2.9
COc1ccc2ncc(-c3cc4c(N5CCN(c6ccccc6)CC5)nccc4o3)n2n1 [III-91, 6-Methoxy-3-[4-(4-phenylpiperazin-1-yl)furo[3,2-c]pyridin-2-yl]imidazo[1,2-b]pyridazine]	18.3	8.4
CN(CCCN1CCCC1)c1nccc2oc(-c3cnc4ccc(O[C@H]5C[C@H](N)C5)nn34)cc12 [III-97, 2-{6-[(trans-3-Aminocyclobutyl)oxy]imidazo[1,2-b]pyridazin-3-yl}-N-methyl-N-[3-(pyrrolidin-1-yl)propyl]furo[3,2-c]pyridin-4-amine]	21	5.6
CC(C)(C)N1CCN(c2nccc3oc(-c4cnc5ccc(O[C@H]6C[C@H](N)C6)nn45)cc23)CC1 [III-99, trans-3-({3-[4-(4-tert-butylpiperazin-1-yl)furo[3,2-c]pyridin-2-yl]imidazo[1,2-b]pyridazin-6-yl}oxy)cyclobutanamine]	45.6	24.4
CN1CCC(N(C)c2nccc3oc(-c4cnc5ccc(O[C@H]6C[C@H](N)C6)nn45)cc23)CC1 [III-100, 2-{6-[(trans-3-Aminocyclobutyl)oxy]imidazo[1,2-b]pyridazin-3-yl}-N-methyl-N-(1-methylpiperidin-4-yl)furo[3,2-c]pyridin-4-amine]	45.8	5.7
N[C@H]1C[C@H](Oc2ccc3ncc(-c4cc5c(N6CCC[C@@H]6CO)nccc5o4)n3n2)C1 [III-102, [(2R)-1-(2-{6-[(trans-3-Aminocyclobutyl)oxy]imidazo[1,2-b]pyridazin-3-yl}furo[3,2-c]pyridin-4-yl)pyrrolidin-2-yl]methanol]	31.2	6.8
N[C@H]1C[C@H](Oc2ccc3ncc(-c4cc5c(N6CCNCC6)nccc5o4)n3n2)C1 [III-103, trans-3-({3-[4-(Piperazin-1-yl)furo[3,2-c]pyridin-2-yl]imidazo[1,2-b]pyridazin-6-yl}oxy)cyclobutanamine]	18.6	9.1
C[C@@H]1CN(c2nccc3oc(-c4cnc5ccc(O[C@H]6C[C@H](N)C6)nn45)cc23)C[C@H](C)O1 [III-104, trans-3-[(3-{4-[(2R,6S)-2,6-Dimethylmorpholin-4-yl]furo[3,2-c]pyridin-2-yl}imidazo[1,2-b]pyridazin-6-yl)oxy]cyclobutanamine]	61.5	18.7
N[C@H]1C[C@H](Oc2ccc3ncc(-c4cc5c(N6CCN(c7ccccc7)CC6)nccc5o4)n3n2)C1 [III-106, trans-3-({3-[4-(4-Phenylpiperazin-1-yl)furo[3,2-c]pyridin-2-yl]imidazo[1,2-b]pyridazin-6-yl}oxy)cyclobutanamine]	9.2	10.2
C[C@@H]1COCCN1c1nccc2oc(-c3cnc4ccc(O[C@H]5C[C@H](N)C5)nn34)cc12 [III-107, trans-3-[(3-{4-[(3R)-3-Methylmorpholin-4-yl]furo[3,2-c]pyridin-2-yl}imidazo[1,2-b]pyridazin-6-yl)oxy]cyclobutanamine]	11.8	4.8
CCN(CCOC(C)(C)C)c1nccc2oc(-c3cnc4ccc(O[C@H]5C[C@H](N)C5)nn34)cc12 [III-108, 2-{6-[(trans-3-Aminocyclobutyl)oxy]imidazo[1,2-b]pyridazin-3-yl}-N-(2-tert-butoxyethyl)-N-ethylfuro[3,2-c]pyridin-4-amine]	0.5	1.9
CCN(CCOC)c1nccc2oc(-c3cnc4ccc(O[C@H]5Cc6ccccc6[C@@H]5N)nn34)cc12 [III-111, 2-(6-{[(1S,2S)-1-Amino-2,3-dihydro-1H-inden-2-yl]oxy}imidazo[1,2-b]pyridazin-3-yl)-N-ethyl-N-(2-methoxyethyl)furo[3,2-c]pyridin-4-amine]	42.2	3.8
CCN(CCOC)c1nccc2oc(-c3cnc4ccc(O[C@H]5Cc6ccccc6[C@H]5N)nn34)cc12 [III-112, 2-(6-{[(1R,2S)-1-Amino-2,3-dihydro-1H-inden-2-yl]oxy}imidazo[1,2-b]pyridazin-3-yl)-N-ethyl-N-(2-methoxyethyl)furo[3,2-c]pyridin-4-amine]	88.1	15.6
CN(C)[C@H]1CCN(c2nccc3oc(-c4cnc5ccc(OCCCS(C)(=O)=O)nn45)cc23)C1 [III-114, (3S)-N,N-dimethyl-1-(2-{6-[3-(methylsulfonyl)propoxy]imidazo[1,2-b]pyridazin-3-yl}furo[3,2-c]pyridin-4-yl)pyrrolidin-3-amine]	23.4	10.4
C[C@H](N)COc1ccc2ncc(-c3cc4c(N5CC[C@H](N(C)C)C5)nccc4o3)n2n1 [III-115, (3S)-1-[2-(6-{[(2S)-2-aminopropyl]oxy}imidazo [1,2-b]pyridazin-3-yl)furo[3,2-c]pyridin-4-yl]-N,N-dimethylpyrrolidin-3-amine]	84.1	18.6
C[C@H](N)COc1ccc2ncc(-c3cc4c(N5CCN(C(C)(C)C)CC5)nccc4o3)n2n1 [III-116, (2S)-1-({3-[4-(4-tert-butylpiperazin-1-yl)furo[3,2-c]pyridin-2-yl]imidazo[1,2-b]pyridazin-6-yl}oxy)propan-2-amine]	114	27
C[C@H](N)COc1ccc2ncc(-c3cc4c(N5CCO[C@H](C)C5)nccc4o3)n2n1 [III-117, (2S)-1-[(3-{4-[(2R)-2-methylmorpholin-4-yl]furo[3,2-c]pyridin-2-yl}imidazo[1,2-b]pyridazin-6-yl)oxy]propan-2-amine]	39.9	21.5
C[C@@H]1CN(c2nccc3oc(-c4cnc5ccc(OCCCS(C)(=O)=O)nn45)cc23)CCO1 [III-119, 3-{4-[(2R)-2-methylmorpholin-4-yl]furo[3,2-c]pyridin-2-yl}-6-[3-(methylsulfonyl)propoxy] imidazo[1,2-b]pyridazine]	17	8.8
C[C@@H]1CN(c2nccc3oc(-c4cnc5ccc(OC[C@@H](C)N)nn45)cc23)CCO1 [III-121, (2R)-1-[(3-{4-[(2R)-2-methylmorpholin-4-yl]furo[3,2-c]pyridin-2-yl}imidazo[1,2-b]pyridazin-6-yl)oxy]propan-2-amine]	12.8	11.6
C[C@@H]1CN(c2nccc3oc(-c4cnc5ccc(O[C@H]6C[C@H](N)C6)nn45)cc23)CCO1 [III-122, trans-3-[(3-{4-[(2R)-2-methylmorpholin-4-yl]furo[3,2-c]pyridin-2-yl}imidazo[1,2-b]pyridazin-6-yl)oxy]cyclobutanamine]	13	12.3

Now from value to compound:

IC50 (MKNK1 [1]) [nM]	IC50 (MKNK1 [2]) [nM]	SMILES
0.5	0.8	CCN(CCOC)c1nccc2oc(-c3cnc4ccc(OC[C@H]5CNCC(=O)N5)nn34)cc12 [III-90, (6R)-6-{[(3-{4-[Ethyl(2-methoxyethyl)amino]furo[3,2-c]pyridin-2-yl}imidazo[1,2-b]pyridazin-6-yl)oxy]methyl}piperazin-2-one]
7.8	3.2	N[C@H]1C[C@H](Oc2ccc3ncc(-c4cc5c(N6CCOCC6)nccc5o4)n3n2)C1 [III-95, trans-3-({3-[4-(Morpholin-4-yl)furo[3,2-c]pyridin-2-yl]imidazo[1,2-b]pyridazin-6-yl}oxy)cyclobutanamine]
3.4	3.9	CN1CCN(c2nccc3oc(-c4cnc5ccc(O[C@H]6C[C@@H](N)C6)nn45)cc23)CC1 [III-96, cis-3-({3-[4-(4-Methylpiperazin-1-yl)furo[3,2-c]pyridin-2-yl]imidazo[1,2-b]pyridazin-6-yl}oxy)cyclobutanamine]
3.3	1.6	CN(C)[C@@H]1CCN(c2nccc3oc(-c4cnc5ccc(O[C@H]6C[C@H](N)C6)nn45)cc23)C1 [III-98, (3R)-1-(2-{6-[(trans-3-Aminocyclobutyl)oxy]imidazo[1,2-b]pyridazin-3-yl}furo[3,2-c]pyridin-4-yl)-N,N-dimethylpyrrolidin-3-amine]
1.2	0.8	CCN(CCOC)c1nccc2oc(-c3cnc4ccc(O[C@H]5C[C@H](N)C5)nn34)cc12 [III-101, 2-{6-[(trans-3-Aminocyclobutyl)oxy]imidazo[1,2-b]pyridazin-3-yl}-N-ethyl-N-(2-methoxyethyl)furo[3,2-c]pyridin-4-amine]
7.3	2.1	CN(CCCO)c1nccc2oc(-c3cnc4ccc(O[C@H]5C[C@H](N)C5)nn34)cc12 [III-105, 3-[(2-{6-[(trans-3-Aminocyclobutyl)oxy]imidazo[1,2-b]pyridazin-3-yl}furo-[3,2-c]pyridin-4-yl)(methyl)amino]propan-1-ol]
0.3	0.5	CCN(CCOC)c1nccc2oc(-c3cnc4ccc(OC[C@@H]5CNCC(=O)N5)nn34)cc12 [III-113, (6S)-6-{[(3-{4-[Ethyl(2-methoxyethyl)amino]furo[3,2-c]pyridin-2-yl}imidazo[1,2-b]pyridazin-6-yl)oxy]methyl}piperazin-2-one]
1	2.5	C[C@@H]1CN(c2nccc3oc(-c4cnc5ccc(OC[C@H]6CCC(=O)N6)nn45)cc23)CCO1 [III-118, (5R)-5-{[(3-{4-[(2R)-2-methylmorpholin-4-yl]furo[3,2-c]pyridin-2-yl}imidazo[1,2-b]pyridazin-6-yl)oxy]methyl}pyrrolidin-2-one]
7.4	11.2	COc1ccc2ncc(-c3cc4c(N5CCO[C@H](C)C5)nccc4o3)n2n1 [III-120, 6-methoxy-3-{4-[(2R)-2-methylmorpholin-4-yl]furo[3,2-c]pyridin-2-yl}imidazo[1,2-b]pyridazine]
